From US20200163984A1, “USE OF ISOVALERYL SPIRAMYCIN I, II AND/OR III IN MANUFACTURING MEDICAMENT FOR TREATING AND/OR PREVENTING TUMOR, AND MEDICAMENT” (SHENYANG FUYANG PHARMACEUTICAL TECHNOLOGY CO., LTD., priority 2017, published 2020)

Experiments:
[1] = test system: transplanted tumor of human breast cancer cell MCF-7; test: MCF-7 transplanted tumor in nude mice
Protocol: (§1) Then cell concentration was adjusted to 1×10^7/ml with matrigel, then each nude mouse was inoculated subcutaneously with 0.2 ml of cells at its right armpit and recorded as the first day of inoculation. When the tumor grows to be greater than or equal to 100 mm^3, the mice were randomly divided into 11 groups with 6 mice in each group: a model group, a cyclophosphamide group, isovaleryl spiramycin I groups with doses of 25, 50 and 100 mg/kg, isovaleryl spiramycin II groups with doses of 25, 50 and 100 mg/kg, and isovaleryl spiramycin III groups with doses of 25, 50 and 100 mg/kg. Each group was continuously administered intragastrically for 30 days with a dose of 20 ml/kg. The mice were sacrificed the next day after drug withdrawal and the indicators were tested. The long diameter and short diameter of the tumor, and the body weight of each mouse were recorded every 3 days from drug administration to nude mouse sacrifice.
(§2) The body weight of the nude mice and the long diameter (a) and short diameter (b) of the transplanted tumor were measured every 3 days, and the tumor volume (v), relative tumor volume (RTV) and relative tumor proliferation rate (T/C) are calculated respectively according to the following formulas, wherein V=a×b^2/2; RTV=V/V0 (V0 is the tumor volume before administration, V is the tumor volume before sacrifice), and T/C (%)=treatment group RTV/model control group RTV×100%.
(§3) Each mouse was weighed and sacrificed. After the tumor was completely stripped off from the body of the mouse, the non-tumor tissues such as blood stains and fat were removed to weigh the tumor and calculate the tumor growth inhibition rate. The average tumor weight of each group of mice is used as an indicator of efficacy. Tumor growth inhibition rate (%)=(1−the average tumor weight of the treatment group/the average tumor weight of the model group)×100%.

[2] = test system: transplanted tumor of human breast cancer cell MDA-MB-231; test: MDA-MB-231 transplanted tumor in nude mice
Protocol: as §1, §2, §3

[3] = test system: transplanted tumor of human pancreatic cancer cell PANC-1; test: PANC-1 transplanted tumor in nude mice; conditions: PANC-1
Protocol: as §1, §2, §3

[4] = MCF-7, 25 mg/kg (low dose) i.g. 30 days
[5] = MCF-7, 50 mg/kg (medium dose) i.g. 30 days
[6] = MCF-7, 100 mg/kg (high dose) i.g. 30 days
[7] = MDA-MB-231, 25 mg/kg (low dose) i.g. 30 days
[8] = MDA-MB-231, 50 mg/kg (medium dose) i.g. 30 days
[9] = MDA-MB-231, 100 mg/kg (high dose) i.g. 30 days
[10] = 12.5 mg/kg (low dose) i.g. 30 days
[11] = 25 mg/kg (medium dose) i.g. 30 days
[12] = 50 mg/kg (high dose) i.g. 30 days

mouse weight compared with the model group ([1]; mouse, in vivo): no significant changes
mouse weight compared with the model group ([2]; mouse, in vivo): no significant changes
SMILES: CCC(=O)O[C@@H]1CC(=O)O[C@H](C)C/C=C/C=C/[C@H](O[C@H]2CC[C@H](N(C)C)[C@@H](C)O2)[C@H](C)C[C@H](CC=O)[C@H](O[C@@H]2O[C@H](C)[C@@H](O[C@H]3C[C@@](C)(O)[C@@H](OC(=O)CC(C)C)[C@H](C)O3)[C@H](N(C)C)[C@H]2O)[C@H]1OC [Isovaleryl spiramycin III, isovaleryl spiramycin III]
Inhibition Rate (tumor growth inhibition rate) [1, 4]: 26.75%
Relative Tumor Proliferation Rate (T/C) [1, 4]: 75.03%
Relative Tumor Volume (RTV) [1, 4]: 13.13 ± 3.15
Tumor Volume (d 1) [1, 4]: 137.99 ± 20.99 mm3
Tumor Volume (d 30) [1, 4]: 1758.49 ± 129.06 mm3
Tumor Weight [1, 4]: 1.99 ± 0.81 g
Inhibition Rate (tumor growth inhibition rate) [1, 5]: 39.09%
Relative Tumor Proliferation Rate (T/C) [1, 5]: 54.92%
Relative Tumor Volume (RTV) [1, 5]: 9.61 ± 1.66
Tumor Volume (d 1) [1, 5]: 109.95 ± 13.42 mm3
Tumor Volume (d 30) [1, 5]: 1043.33 ± 113.01 mm3
Tumor Weight [1, 5]: 1.66 ± 0.66 g
Inhibition Rate (tumor growth inhibition rate) ([1]; MCF-7, 50 mg/kg (medium dose) i.g. 30 days, listed as isovaleryl spiramycin III): 39.08%
Inhibition Rate (tumor growth inhibition rate) [1, 6]: 61.78%
Relative Tumor Proliferation Rate (T/C) [1, 6]: 34.90%
Relative Tumor Volume (RTV) [1, 6]: 5.17 ± 0.64
Tumor Volume (d 1) [1, 6]: 113.14 ± 9.02 mm3
Tumor Volume (d 30) [1, 6]: 684.21 ± 115.00 mm3
Tumor Weight [1, 6]: 1.03 ± 0.54 g
Relative Tumor Proliferation Rate (T/C) ([1]; MCF-7, 100 mg/kg (high dose) i.g. 30 days, listed as isovaleryl spiramycin III): 34.91%
tumor volume and relative tumor volume compared with the model group ([1]; MCF-7, low, medium and high doses, P<0.05): significantly lower
Inhibition Rate (tumor growth inhibition rate) [2, 7]: 24.35%
Relative Tumor Proliferation Rate (T/C) [2, 7]: 68.36%
Relative Tumor Volume (RTV) [2, 7]: 10.68 ± 2.47
Tumor Volume (d 1) [2, 7]: 114.53 ± 6.52 mm3
Tumor Volume (d 30) [2, 7]: 1217.28 ± 267.06 mm3
Tumor Weight [2, 7]: 1.76 ± 0.20 g
Inhibition Rate (tumor growth inhibition rate) [2, 8]: 52.01%
Relative Tumor Proliferation Rate (T/C) [2, 8]: 50.12%
Relative Tumor Volume (RTV) [2, 8]: 7.83 ± 2.97
Tumor Volume (d 1) [2, 8]: 112.00 ± 10.40 mm3
Tumor Volume (d 30) [2, 8]: 860.48 ± 286.44 mm3
Tumor Weight [2, 8]: 1.11 ± 0.54 g
Inhibition Rate (tumor growth inhibition rate) ([2]; MDA-MB-231, 50 mg/kg (medium dose) i.g. 30 days, listed as isovaleryl spiramycin III): 21.01%
Inhibition Rate (tumor growth inhibition rate) [2, 9]: 62.93%
Relative Tumor Proliferation Rate (T/C) [2, 9]: 35.27%
Relative Tumor Volume (RTV) [2, 9]: 5.51 ± 2.72
Tumor Volume (d 1) [2, 9]: 115.76 ± 7.04 mm3
Tumor Volume (d 30) [2, 9]: 647.02 ± 338.62 mm3
Tumor Weight [2, 9]: 0.86 ± 0.44 g
tumor volume and relative tumor volume compared with the model group ([2]; MDA-MB-231, low, medium and high doses, P<0.05): significantly lower
Inhibition Rate (tumor growth inhibition rate) [3, 10]: 26.75%
Tumor Weight [3, 10]: 1.99 ± 0.81 g
Inhibition Rate (tumor growth inhibition rate) [3, 11]: 39.09%
Tumor Weight [3, 11]: 1.66 ± 0.66 g
Inhibition Rate (tumor growth inhibition rate) ([3]; 25 mg/kg (medium dose) i.g. 30 days, listed as isovaleryl spiramycin III): 39.08%
Inhibition Rate (tumor growth inhibition rate) [3, 12]: 61.78%
Tumor Weight [3, 12]: 1.03 ± 0.54 g
Relative Tumor Proliferation Rate (T/C) ([3]; high dose i.g. 30 days): 34.91%
